According to the supplement of paper PMC10307832:

Key:
Assay in all cases: relative viability (nuclei count vs DMSO), 5 days (fraction); higher = more cells survive
A-427 = tested on: A-427
In short: (§1)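 Five library-drug doses in √10 steps were combined with a fixed anchor-drug dose, or a single drug was given alone, by pin tool to lung cancer cell lines in 1536-well plates the day after seeding. Nuclei were stained and counted after 5 days. Relative viability is the nuclei count in treated wells over that in vehicle wells, taken as the median of duplicate plates.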

CAL-12T = tested on: CAL-12T
In short: as §1

COR-L 105 = tested on: COR-L 105
In short: as §1

EMC-BAC-2 = tested on: EMC-BAC-2
In short: as §1

HARA = tested on: HARA
In short: as §1

HCC-366 = tested on: HCC-366
In short: as §1

HCC-827 = tested on: HCC-827
In short: as §1

HOP-62 = tested on: HOP-62
In short: as §1

LCLC-103H = tested on: LCLC-103H
In short: as §1

NCI-H1355 = tested on: NCI-H1355
In short: as §1

NCI-H1395 = tested on: NCI-H1395
In short: as §1

NCI-H1437 = tested on: NCI-H1437
In short: as §1

NCI-H1755 = tested on: NCI-H1755
In short: as §1

NCI-H1792 = tested on: NCI-H1792
In short: as §1

NCI-H1915 = tested on: NCI-H1915
In short: as §1

NCI-H1975 = tested on: NCI-H1975
In short: as §1

NCI-H2009 = tested on: NCI-H2009
In short: as §1

NCI-H2228 = tested on: NCI-H2228
In short: as §1

NCI-H23 = tested on: NCI-H23
In short: as §1

NCI-H460 = tested on: NCI-H460
In short: as §1

NCI-H727 = tested on: NCI-H727
In short: as §1

SK-LU-1 = tested on: SK-LU-1
In short: as §1

SW 1573 = tested on: SW 1573
In short: as §1

Compound: CC(C)Oc1cc(Nc2nc(N[C@@H](C)c3ccc(F)cn3)ncc2Cl)n[nH]1 [AZ23] + Cc1nc(NC(=O)N2CCC[C@H]2C(N)=O)sc1-c1ccnc(C(C)(C)C(F)(F)F)c1 [Alpelisib] (partner 2 µM)
- relative viability (A-427; first compound 0.01 µM): 1.13
- relative viability (A-427; first compound 0.03162 µM): 1.1
- relative viability (A-427; first compound 0.3162 µM): 1.08
- relative viability (CAL-12T; first compound 0.01 µM): 0.787
- relative viability (CAL-12T; first compound 0.03162 µM): 1.26
- relative viability (CAL-12T; first compound 0.3162 µM): 1.28
- relative viability (COR-L 105; first compound 0.01 µM): 0.676
- relative viability (COR-L 105; first compound 0.03162 µM): 1.33
- relative viability (COR-L 105; first compound 0.3162 µM): 0.813
- relative viability (EMC-BAC-2; first compound 0.01 µM): 0.897
- relative viability (EMC-BAC-2; first compound 0.03162 µM): 0.791
- relative viability (EMC-BAC-2; first compound 0.3162 µM): 0.754
- relative viability (HARA; first compound 0.01 µM): 1.18
- relative viability (HARA; first compound 0.03162 µM): 0.847
- relative viability (HARA; first compound 0.3162 µM): 0.774
- relative viability (HCC-366; first compound 0.01 µM): 0.391
- relative viability (HCC-366; first compound 0.03162 µM): 0.517
- relative viability (HCC-366; first compound 0.3162 µM): 0.334
- relative viability (HCC-827; first compound 0.01 µM): 1.11
- relative viability (HCC-827; first compound 0.03162 µM): 1.05
- relative viability (HCC-827; first compound 0.3162 µM): 1.07
- relative viability (HOP-62; first compound 0.01 µM): 1.08
- relative viability (HOP-62; first compound 0.03162 µM): 0.973
- relative viability (HOP-62; first compound 0.3162 µM): 0.97
- relative viability (LCLC-103H; first compound 0.01 µM): 0.953
- relative viability (LCLC-103H; first compound 0.03162 µM): 1.01
- relative viability (LCLC-103H; first compound 0.3162 µM): 0.996
- relative viability (NCI-H1355; first compound 0.01 µM): 0.876
- relative viability (NCI-H1355; first compound 0.03162 µM): 0.873
- relative viability (NCI-H1355; first compound 0.3162 µM): 0.782
- relative viability (NCI-H1395; first compound 0.03162 µM): 1.06
- relative viability (NCI-H1395; first compound 0.3162 µM): 1.08
- relative viability (NCI-H1437; first compound 0.01 µM): 0.949
- relative viability (NCI-H1437; first compound 0.03162 µM): 1.15
- relative viability (NCI-H1437; first compound 0.3162 µM): 1.06
- relative viability (NCI-H1755; first compound 0.01 µM): 1.12
- relative viability (NCI-H1755; first compound 0.03162 µM): 1.05
- relative viability (NCI-H1755; first compound 0.3162 µM): 1.09
- relative viability (NCI-H1792; first compound 0.01 µM): 1.08
- relative viability (NCI-H1792; first compound 0.03162 µM): 0.831
- relative viability (NCI-H1792; first compound 0.3162 µM): 0.83
- relative viability (NCI-H1915; first compound 0.01 µM): 1.17
- relative viability (NCI-H1915; first compound 0.03162 µM): 1.09
- relative viability (NCI-H1915; first compound 0.3162 µM): 1.04
- relative viability (NCI-H1975; first compound 0.01 µM): 0.696
- relative viability (NCI-H1975; first compound 0.03162 µM): 0.718
- relative viability (NCI-H1975; first compound 0.3162 µM): 0.705
- relative viability (NCI-H2009; first compound 0.01 µM): 1.13
- relative viability (NCI-H2009; first compound 0.03162 µM): 1.23
- relative viability (NCI-H2009; first compound 0.3162 µM): 1.19
- relative viability (NCI-H2228; first compound 0.01 µM): 0.88
- relative viability (NCI-H2228; first compound 0.03162 µM): 1.01
- relative viability (NCI-H2228; first compound 0.3162 µM): 0.67
- relative viability (NCI-H23; first compound 0.03162 µM): 0.749
- relative viability (NCI-H23; first compound 0.3162 µM): 0.573
- relative viability (NCI-H460; first compound 0.01 µM): 0.429
- relative viability (NCI-H460; first compound 0.03162 µM): 0.598
- relative viability (NCI-H460; first compound 0.3162 µM): 0.48
- relative viability (NCI-H727; first compound 0.01 µM): 0.634
- relative viability (NCI-H727; first compound 0.03162 µM): 0.628
- relative viability (NCI-H727; first compound 0.3162 µM): 0.601
- relative viability (SK-LU-1; first compound 0.01 µM): 1.28
- relative viability (SK-LU-1; first compound 0.03162 µM): 1.09
- relative viability (SK-LU-1; first compound 0.3162 µM): 0.973
- relative viability (SW 1573; first compound 0.01 µM): 0.852
- relative viability (SW 1573; first compound 0.03162 µM): 0.845
- relative viability (SW 1573; first compound 0.3162 µM): 0.712
